Counter-ions that a name gives are not always drawn. Like-named read-outs stand apart in the source and are kept apart here.

The record followed here is US8487104B2, “KAT II inhibitors” (Pfizer Inc., priority 2010, dated 2013).

The target in series [1] is human KAT II (hKAT II) enzyme (Homo sapiens, UniProt Q8N5Z0). Put plainly: Human KAT II Inhibition Spectra Assay. In kind it is biochemical. The method, then: Human KAT II Inhibition Spectra Assay Formation of kynurenic acid (KYNA) is indirectly assessed by a decrease in light absorbance at 370 nm (OD370) as the L-kynurenine (KYN) substrate is converted by the human KAT II (hKAT II) enzyme into KYNA. An inhibitor would therefore inhibit the decrease in OD370. The protocol was performed by placing the following reagents into a Costar 384 well black plate (30 μL total assay volume/well): • 10 μL of 3× concentrated compound; • 10 μL of 3× concentrated substrate mix (BGG (Sigma G-5009); 3 mM L-Kynurenine in 150 mM Tris Acetate (Sigma K3750); 3 mM α-ketoglutaric acid in 150 mM Tris Acetate (Sigma K2010); and 210 μM pyridoxal 5-phosphate (PLP) in 150 mM Tris Acetate (Sigma 9255)); and • 10 μL of 3× concentrated enzyme (15 nM enzyme in 150 mM Tris Acetate with 0.3% bovine serum). Plates were sealed and incubated at 37° C. for 15-20 h before reading OD370 on a SpectraMax Plus plate reader. IC50s were generated by comparing the efficacy of compounds across a concentration range to inhibit a reduction in the OD370 value relative to assay wells with DMSO added in place of concentrated compound. Biological data for the Examples may be found Tables 1 and 2.

The target of a further series is human KATII enzyme (Homo sapiens, UniProt Q8N5Z0). Put plainly: KATII Kinetic Assay (kinact/KI determination). It is filed as biochemical. The settings on record: read-out: hKATII kinact/KI. The method, then:
The compounds of the present invention are irreversible inhibitors of KATII. Potency of irreversible inhibitors is best characterized by kinact/KI (See Copeland, R. A.; “Evaluation of Enzyme Inhibitors in Drug Discovery,” Wiley, 2005).
Test compounds were dissolved in 100% DMSO and diluted to the required concentrations in 100% DMSO. An additional aqueous dilution was made so that the compound at 3× final concentration was 1.0% DMSO in the assay specific buffer. Compounds were tested at 11 concentrations. Final DMSO concentrations in the assay plate were equal to 0.33%.
KATII enzyme activity was followed by measuring the loss of absorbance of the L-KYN substrate at an absorbance wavelength of 370 nm. The KATII assays were run in a 384 well format at a final volume of 30 μL using 150 mM Tris Acetate buffer (pH7.0), 1 mM L-KYN,1 mM α-ketoglutaric acid, 70 μM PLP, 0.1% BGG and either 30 nM human KATII enzyme or 5 nM rat KATII enzyme KATII enzyme. Compound was diluted in 100% DMSO and spotted prior to the addition of the other reagents. Enzyme was always added last. Assay plates were sealed around the edges with tape and immediately read on a SpectraMax plate reader at an absorbance wavelength of 370 nm. The SpectraMax plate reader was set up to read every 5 min for 16 hours.
The following steps are taken to ensure consistent production of kinetic read data: • 1. A 10 μL aliquot of the compound dilutions (described above in compound preparation) was added to the assay plate by hand followed by a quick spin to ensure compound was collected at bottom of well. • 2. A 10 μL aliquot of substrate mix containing the L-KYN, a-ketoglutaric acid and PLP was then added to the assay plate via a Multidrop instrument. • 3. Finally, a 10 μL aliquot of a 3× concentration of enzyme stock soluton was added last to initiate the reaction via a Multidrop instrument. • 4. The microplate lid was placed onto the assay plate and taped to seal in humidity, and the assay plate was put into the SpectraMax reader. A quick vibration on the plate platform was done to ensure mixing, and the absorbance was read (wavelength of 370 nm) every 5 min over 16 h at room temperature. Determination of Potencies (kinact/Kl Values)
The direct substrate absorbance loss assay described above was performed for the determination of potencies (kinact/Kl values). The overall potency, kinact/K1 values, were determined using the general approach described by M. Mileni et al., Proc. Natl. Acad. Sci. USA 2008, 105 12820-12824 and K. Ahn et al. Chem. Biol. 2009, 16, 411-420. Reaction progress curves (decrease in A370 nm with time) were obtained in the presence of eleven concentrations of inhibitor with top dose at […]. A null inhibitor control is always included. Absorbance read data were collected for 16 hours at 5 minute intervals. […] Each progress curve was fit to a one phase exponential decay model (equation 1) to determine kobserved (kobs) values at each inhibitor concentration, where At is absorbance at time t, A0 is the absorbance at t=infinite, A1 is a total absorbance change (the absorbance difference between t=0 and t=infinite), and kobs is the first order rate constant for enzyme inactivation. […] When [I]<<K1, equation 2 is simplified to equation 3, where the kinact/Kl is calculated from the slope, kinact/[Kl(1+[S]/Km)], which is obtained from the kobs vs [I] linear regression fit. […]

For the next series, the system named is human hepatocytes. The series is described as follows: Human Hepatocyte Assay (HHEP). It is filed as in vitro ADME. The note with it: 1 μM test compound, 0.5 million viable cells/mL.
Series [2] in a line: Pharmacokinetics Studies in Dog. In kind it is in vivo. Also noted: AUC/dose: unit not given beside the values. The settings on record: dogs; for AUC / C0 / clearance / half-life / Cmax: male, beagle, dog, plasma. The method, then:
Pharmacokinetics Studies in Dog Test substances (Examples 2-3) were administered by oral gavage or IV administration to groups of two dogs. The two male dogs were beagles obtained from Marshal Farms, weighing from about 9 to about 12 kg at start of treatment and ranging in age between approximately 4 to approximately 6 years. Blood samples were taken times of 0.25, 0.5, 1, 2, 4, 7, and 24 h after administration and submitted to analysis for the drug substance using an LC-MS-MS assay. Pharmacokinetic parameters derived from the plasma analytical data were determined using Watson 7.2.003.

Series [3] is described as follows: Reactive Metabolite Assay. In kind it is in vitro ADME. As to the method:
[formula] Reactive Metabolite Assay Protocol Metabolite activity in Table 2 is measured using a reactive metabolite assay protocol as described in Reactive Metabolite assay protocol: See J. R. Soglia et al., J. Pharm. Biomed. Anal. 2004, 36, 105-116.

Setting [4] is: OD370 readout, 37° C., 15-20 h incubation, read-out: hKATII IC50.
Where [5] appears, read: IV administration, dose = 0.5 mg/kg.
Where [6] appears, read: oral administration, dose 5 mg/kg (Ex 3, 2), 2 mg/kg (Ex 5).

Chain of human KATII enzyme (Q8N5Z0 30-425): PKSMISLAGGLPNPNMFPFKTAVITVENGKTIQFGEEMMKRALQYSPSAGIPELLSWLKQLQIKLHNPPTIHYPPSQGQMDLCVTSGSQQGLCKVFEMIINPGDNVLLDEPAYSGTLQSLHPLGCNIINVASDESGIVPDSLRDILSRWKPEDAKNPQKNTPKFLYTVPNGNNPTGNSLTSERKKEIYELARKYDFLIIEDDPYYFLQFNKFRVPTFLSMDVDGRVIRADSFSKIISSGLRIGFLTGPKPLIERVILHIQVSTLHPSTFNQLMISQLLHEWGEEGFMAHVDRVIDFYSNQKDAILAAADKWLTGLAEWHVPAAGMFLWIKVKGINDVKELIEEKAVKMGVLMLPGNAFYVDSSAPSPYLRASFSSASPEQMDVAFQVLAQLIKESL
Chain of human KAT II (hKAT II) enzyme (Q8N5Z0 30-425): as above

As usually defined, the IC50 is the midpoint of a concentration-inhibition curve. `N[C@H]1Cc2ccccc2N(O)C1=O` [Example 4, (3S)-3-Amino-1-hydroxy-3,4-dihydroquinolin-2(1H)-one]: the IC50 in series [1] (setting [4]) is 27 nM. Moreover, at human KATII enzyme, the kinact/KI came to 21500 M⁻¹ s⁻¹. For the same molecule, the “HHEP CLint, app” value in the series with human hepatocytes is given as 39.6 μL/min/million.
Usually AUC stands for concentration integrated over time. Usually clearance stands for a measure of how efficiently the substance is removed, as volume per time. What is called half-life is how long it takes for the measured level to halve. One may read the Cmax as the highest concentration seen after dosing. Consider `COCCOc1ccc2c(c1)N(O)C(=O)[C@@H](N)C2` [Example 3, (3S)-3-Amino-1-hydroxy-7-(2-methoxyethoxy)-3,4-dihydroquinolin-2(1H)-one, HCl Salt], for which, in series [1] (setting [4]), the IC50 was 22 nM. Besides, on human KATII enzyme (30 nM human KATII enzyme, room temperature), the kinact/KI amounted to 22300 M⁻¹ s⁻¹. The “HHEP CLint, app” value in the series with human hepatocytes came to 30.1 μL/min/million. Besides, in series [2] (setting [5]), the AUC/dose was determined as 388, the AUC was determined as 194 ng·h/mL, the C0 worked out at 446 ng/mL and the clearance came to 43.4 mL/min/kg. The half-life in series [2] (setting [5]) was 54 min. Further, in series [2] (setting [6]), the AUC/dose came to 31.2, the Cmax/dose is given as 39.6, the AUC came out at 156 ng·h/mL and the Cmax came out at 198 ng/mL. Besides, the half-life in series [2] (setting [6]) is 63 min. For the same molecule, in series [3], the “Reactive Metabolite Formation” value is recorded as “No”.
As to `N#Cc1cccc2c1N(O)C(=O)C(N)C2` (stereo not shown) [Example 6, 3-Amino-1-hydroxy-2-oxo-1,2,3,4-tetrahydroquinoline-8-carbonitrile, HCl Salt], in series [1] (setting [4]), the 50% inhibitory concentration (IC50) is 30 nM.
As to `N#Cc1ccc2c(c1)N(O)C(=O)[C@@H](N)C2` [Example 1, (3S)-3-Amino-1-hydroxy-2-oxo-1,2,3,4-tetrahydroquinoline-7-carbonitrile, HCl Salt], the IC50 in series [1] (setting [4]) came out at 19 nM. Also, the kinact/KI on human KATII enzyme is 46200 M⁻¹ s⁻¹. Moreover, in the series with human hepatocytes, the “HHEP CLint, app” value amounted to 24.8 μL/min/million.
As for `COC[C@H](C)Oc1ccc2c(c1)N(O)C(=O)[C@@H](N)C2` [Example 2, (3S)-3-Amino-1-hydroxy-7-[(1S)-2-methoxy-1-methylethoxy]-3,4-dihydroquinolin-2(1H)-one, HCl Salt], the IC50 in series [1] (setting [4]) came to 18 nM. Besides, the kinact/KI on human KATII enzyme was 25100 M⁻¹ s⁻¹. Besides, in the series with human hepatocytes, the “HHEP CLint, app” value is 19.8 μL/min/million. In series [2] (setting [5]), this molecule gave an AUC/dose of 370, an AUC of 185 ng·h/mL, a C0 of 352 ng/mL and a clearance of 44.9 mL/min/kg. This molecule gave a half-life in series [2] (setting [5]) of 30 min. In series [2] (setting [6]), the AUC/dose was found to be 39, the Cmax/dose worked out at 46, the AUC was determined as 195 ng·h/mL and the Cmax was 229 ng/mL. The same molecule had a half-life in series [2] (setting [6]) of 137 min. Besides, in series [3], the “Reactive Metabolite Formation” value was “No”.
Molecule `CC(C)Oc1ccc2c(c1)N(O)C(=O)[C@@H](N)C2` [Example 5, (3S)-3-Amino-1-hydroxy-7-isopropoxy-3,4-dihydroquinolin-2(1H)-one, HCl Salt] came in with an IC50 in series [1] of 32 nM. Besides, at human KATII enzyme, the kinact/KI is 17100 M⁻¹ s⁻¹. Further, in the series on human hepatocytes, the “HHEP CLint, app” value amounted to 44.7 μL/min/million. Moreover, in series [2] (setting [5]), the AUC/dose came to 436, the AUC came to 218 ng·h/mL, the C0 turned out to be 265 ng/mL and the clearance came to 38.7 mL/min/kg. In series [2] (setting [5]), the half-life is 36 min. For the same molecule, in series [2] (setting [6]), the AUC/dose is recorded as 9.3, the Cmax/dose is given as 9.8, the AUC is 18.6 ng·h/mL and the Cmax was determined as 19.6 ng/mL. In series [2] (setting [6]), this molecule showed a half-life of 27.6 min. For the same molecule, the “Reactive Metabolite Formation” value in series [3] is reported as “Yes”.
